Experimental data: patent US11840686B2, “Modulation of prekallikrein (PKK) expression” (Ionis Pharmaceuticals, Inc., priority 2013, dated 2023)
Strand notation (5' to 3'): a small letter for the sugar, then the base; units joined by * are phosphorothioate-linked, units joined directly phosphodiester-linked; [ ] holds rarer units or linkages, { } end groups; capitals alone tell only the bases. e = 2'-O-(2-methoxyethyl) (MOE); [5mC] = 5-methylcytosine; d = 2'-deoxy (DNA)

Columns and labels:
[1] = system: human PKK mRNA; test: Dose-dependent antisense inhibition of human PKK in HepaRG cells, 0.19-5.00 uM (Example 5); type: cell-based; conditions: HepaRG cells; for percent inhibition of PKK at 0.19 μM / percent inhibition of PKK at 0.56 μM / percent inhibition of PKK at 1.67 μM / percent inhibition of PKK at 5.00 μM: electroporation, approximately 16 hours; for percent inhibition of PKK mRNA, 0.19 μM: 0.19 μM antisense oligonucleotide; for percent inhibition of PKK mRNA, 0.56 μM: 0.56 μM antisense oligonucleotide; for percent inhibition of PKK mRNA, 1.67 μM: 1.67 μM antisense oligonucleotide; for percent inhibition of PKK mRNA, 5.00 μM: 5.00 μM antisense oligonucleotide
Outline: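 HepaRG cells (20,000/well) were electroporated with antisense oligonucleotide at 0.19, 0.56, 1.67 and 5.00 μM and treated for about 16 hours. PKK mRNA was quantified by qRT-PCR with primer probe set RTS3454, normalised to RIBOGREEN total RNA, and IC50 was derived per oligonucleotide.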

[2] = system: human PKK mRNA; test: Antisense inhibition of human PKK mRNA in HepaRG cells, 5,000 nM (Example 2); type: cell-based
Outline: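 HepaRG cells (20,000/well) electroporated with 5,000 nM MOE gapmer (phosphorothioate backbone, 5-methylcytosines) and harvested after ~24 h. PKK mRNA measured by qRT-PCR with primer probe set RTS3454, normalized to RIBOGREEN total RNA; percent inhibition versus untreated cells.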

[3] = 4 point dose response, Table 39
[4] = human PKK mRNA in HepaRG cells, 5-10-5 gapmers, Table 14
[5] = 4 point dose response, Table 37
[6] = human PKK mRNA, HepaRG cells, 5-10-5 motif oligonucleotides targeting SEQ ID NO: 1 and 10
[7] = 4 point dose response, Table 38
[8] = 4 point dose response, Table 35
[9] = HepaRG cells, 5,000 nM antisense oligonucleotide, 5-10-5 gapmers, Table 16
[10] = 4 point dose response, Table 40
[11] = HepaRG cells, 5,000 nM antisense oligonucleotide, 5-10-5 gapmers, Table 17
[12] = human PKK mRNA, HepaRG cells, 5,000 nM antisense oligonucleotide, Table 18

547616 (antisense eT*eG*eT*e[5mC]*e[5mC]*dT*dA*dT*dA*dT*d[5mC]*dA*d[5mC]*dT*dG*eT*eA*e[5mC]*e[5mC]*eT) [compound 547616]
percent inhibition of PKK at 0.19 μM ([1]; Table 39): 26% | percent inhibition of PKK at 0.56 μM ([1]; Table 39): 50% | percent inhibition of PKK at 1.67 μM ([1]; Table 39): 72% | percent inhibition of PKK at 5.00 μM ([1]; Table 39): 89% | IC50 [1, 3]: 600 nM | % inhibition [2, 4]: 86%

547617 (antisense e[5mC]*eT*eG*eT*e[5mC]*d[5mC]*dT*dA*dT*dA*dT*d[5mC]*dA*d[5mC]*dT*eG*eT*eA*e[5mC]*e[5mC]) [compound 547617]
percent inhibition of PKK at 0.19 μM ([1]; Table 36): 52% | percent inhibition of PKK at 0.56 μM ([1]; Table 36): 66% | percent inhibition of PKK at 1.67 μM ([1]; Table 36): 77% | percent inhibition of PKK at 5.00 μM ([1]; Table 36): 93% | IC50 ([1]; 4 point dose response, Table 36): 200 nM | percent inhibition of PKK mRNA, 0.19 μM [1]: 17% | percent inhibition of PKK mRNA, 0.56 μM [1]: 37% | percent inhibition of PKK mRNA, 1.67 μM [1]: 79% | percent inhibition of PKK mRNA, 5.00 μM [1]: 98% | IC50 ([1]; 0.19-5.00 μM): 700 nM | % inhibition [2, 4]: 91%

547618 (antisense eA*e[5mC]*eT*eG*eT*d[5mC]*d[5mC]*dT*dA*dT*dA*dT*d[5mC]*dA*d[5mC]*eT*eG*eT*eA*e[5mC]) [compound 547618]
percent inhibition of PKK at 0.19 μM ([1]; Table 37): 0% | percent inhibition of PKK at 0.56 μM ([1]; Table 37): 0% | percent inhibition of PKK at 1.67 μM ([1]; Table 37): 73% | percent inhibition of PKK at 5.00 μM ([1]; Table 37): 98% | IC50 [1, 5]: 1300 nM | % inhibition [2, 4]: 87%

547622 (antisense eG*eT*e[5mC]*eA*e[5mC]*dT*dG*dT*dA*d[5mC]*d[5mC]*dT*dA*dT*dA*eA*e[5mC]*eT*e[5mC]*eT) [compound 547622]
percent inhibition of PKK at 0.19 μM ([1]; Table 37): 0% | percent inhibition of PKK at 0.56 μM ([1]; Table 37): 47% | percent inhibition of PKK at 1.67 μM ([1]; Table 37): 79% | percent inhibition of PKK at 5.00 μM ([1]; Table 37): 90% | IC50 [1, 5]: 900 nM | % inhibition [2, 4]: 88%

547632 (antisense eT*e[5mC]*eA*e[5mC]*eT*dG*dT*d[5mC]*d[5mC]*dT*dA*dT*dA*dT*d[5mC]*eA*e[5mC]*eT*e[5mC]*eT) [compound 547632]
percent inhibition of PKK at 0.19 μM ([1]; Table 39): 44% | percent inhibition of PKK at 0.56 μM ([1]; Table 39): 47% | percent inhibition of PKK at 1.67 μM ([1]; Table 39): 81% | percent inhibition of PKK at 5.00 μM ([1]; Table 39): 97% | IC50 [1, 3]: 600 nM | percent inhibition of PKK mRNA, 0.19 μM [1]: 0% | percent inhibition of PKK mRNA, 0.56 μM [1]: 0% | percent inhibition of PKK mRNA, 1.67 μM [1]: 63% | percent inhibition of PKK mRNA, 5.00 μM [1]: 91% | IC50 ([1]; 0.19-5.00 μM): 1600 nM | % inhibition [2, 6]: 87%

547633 (antisense eA*eT*e[5mC]*eA*e[5mC]*dT*dG*dT*d[5mC]*d[5mC]*dT*dA*dT*dA*dT*e[5mC]*eA*e[5mC]*eT*e[5mC]) [compound 547633]
percent inhibition of PKK at 0.19 μM ([1]; Table 39): 12% | percent inhibition of PKK at 0.56 μM ([1]; Table 39): 46% | percent inhibition of PKK at 1.67 μM ([1]; Table 39): 78% | IC50 [1, 3]: 700 nM | % inhibition [2, 6]: 87%

547636 (eG*eT*eA*eT*e[5mC]*dA*d[5mC]*dT*dG*dT*dA*d[5mC]*dT*dA*dG*eT*eT*eT*eT*e[5mC]; antisense) [compound 547636]
percent inhibition of PKK at 0.19 μM ([1]; Table 38): 0% | percent inhibition of PKK at 0.56 μM ([1]; Table 38): 24% | percent inhibition of PKK at 1.67 μM ([1]; Table 38): 79% | percent inhibition of PKK at 5.00 μM ([1]; Table 38): 94% | IC50 [1, 7]: 1100 nM | % inhibition [2, 6]: 86%

547637 (eA*eG*eT*eA*eT*d[5mC]*dA*d[5mC]*dT*dG*dT*dA*d[5mC]*dT*dA*eG*eT*eT*eT*eT; antisense) [compound 547637]
percent inhibition of PKK at 0.19 μM ([1]; Table 37): 10% | percent inhibition of PKK at 0.56 μM ([1]; Table 37): 21% | percent inhibition of PKK at 1.67 μM ([1]; Table 37): 36% | percent inhibition of PKK at 5.00 μM ([1]; Table 37): 82% | IC50 [1, 5]: 1800 nM | % inhibition [2, 6]: 88%

547647 (eG*eT*e[5mC]*e[5mC]*eT*dA*dT*dA*dT*d[5mC]*dA*d[5mC]*dT*dG*dT*eA*e[5mC]*e[5mC]*eT*eA; antisense) [compound 547647]
percent inhibition of PKK at 0.19 μM ([1]; Table 35): 1% | percent inhibition of PKK at 0.56 μM ([1]; Table 35): 70% | percent inhibition of PKK at 1.67 μM ([1]; Table 35): 72% | IC50 [1, 8]: 800 nM | % inhibition [2, 6]: 92%

547694 (antisense eG*eT*e[5mC]*eA*e[5mC]*dT*dG*dT*dA*d[5mC]*d[5mC]*dT*dA*dT*dA*eA*e[5mC]*eT*eG*eT) [compound 547694]
percent inhibition of PKK at 0.19 μM ([1]; Table 35): 0% | percent inhibition of PKK at 0.56 μM ([1]; Table 35): 29% | percent inhibition of PKK at 1.67 μM ([1]; Table 35): 67% | percent inhibition of PKK at 5.00 μM ([1]; Table 35): 90% | IC50 [1, 8]: 1200 nM | % inhibition [2, 9]: 92%

547712 (antisense e[5mC]*e[5mC]*e[5mC]*e[5mC]*eA*dT*dG*dG*dT*dA*d[5mC]*d[5mC]*dA*dA*dA*eG*e[5mC]*e[5mC]*eA*eT) [compound 547712]
percent inhibition of PKK at 0.19 μM ([1]; Table 40): 0% | percent inhibition of PKK at 0.56 μM ([1]; Table 40): 5% | percent inhibition of PKK at 1.67 μM ([1]; Table 40): 21% | percent inhibition of PKK at 5.00 μM ([1]; Table 40): 62% | IC50 [1, 10]: 3800 nM | % inhibition [2, 9]: 79%

547718 (eA*eT*eA*eA*eA*dG*dT*dG*d[5mC]*dG*dA*dT*dT*dA*dA*eG*e[5mC]*e[5mC]*e[5mC]*e[5mC]; antisense) [compound 547718]
percent inhibition of PKK at 0.19 μM ([1]; Table 39): 36% | percent inhibition of PKK at 0.56 μM ([1]; Table 39): 12% | percent inhibition of PKK at 1.67 μM ([1]; Table 39): 69% | percent inhibition of PKK at 5.00 μM ([1]; Table 39): 74% | IC50 [1, 3]: 1600 nM | % inhibition [2, 9]: 86%

547722 (e[5mC]*eT*e[5mC]*e[5mC]*eA*dG*dT*d[5mC]*dA*d[5mC]*d[5mC]*dA*d[5mC]*d[5mC]*dA*eT*eT*eG*e[5mC]*e[5mC]; antisense) [compound 547722]
percent inhibition of PKK at 0.19 μM ([1]; Table 40): 0% | percent inhibition of PKK at 0.56 μM ([1]; Table 40): 15% | percent inhibition of PKK at 1.67 μM ([1]; Table 40): 32% | percent inhibition of PKK at 5.00 μM ([1]; Table 40): 73% | IC50 [1, 10]: 2400 nM | % inhibition [2, 9]: 80%

547728 (eG*eA*eG*eA*eT*dT*dG*dG*dT*dG*dG*dT*dG*dG*dG*eT*eG*eG*e[5mC]*eA; antisense) [compound 547728]
percent inhibition of PKK at 0.19 μM ([1]; Table 40): 0% | percent inhibition of PKK at 0.56 μM ([1]; Table 40): 2% | percent inhibition of PKK at 1.67 μM ([1]; Table 40): 16% | percent inhibition of PKK at 5.00 μM ([1]; Table 40): 61% | IC50 [1, 10]: 4400 nM | % inhibition [2, 11]: 88%

547731 (eG*eG*eA*eT*eT*dG*dG*dT*dG*dG*dT*dG*dG*dG*dA*eT*eT*eG*eG*eT; antisense) [compound 547731]
percent inhibition of PKK at 0.19 μM ([1]; Table 37): 0% | percent inhibition of PKK at 0.56 μM ([1]; Table 37): 0% | percent inhibition of PKK at 1.67 μM ([1]; Table 37): 17% | percent inhibition of PKK at 5.00 μM ([1]; Table 37): 56% | IC50 [1, 5]: 5000 nM | % inhibition [2, 11]: 49%

547780 (antisense e[5mC]*e[5mC]*e[5mC]*e[5mC]*eT*d[5mC]*dT*dT*dA*dA*dA*dT*dA*dG*d[5mC]*eA*e[5mC]*eA*eT*eG) [compound 547780]
percent inhibition of PKK at 0.19 μM ([1]; Table 40): 0% | percent inhibition of PKK at 0.56 μM ([1]; Table 40): 10% | percent inhibition of PKK at 1.67 μM ([1]; Table 40): 36% | percent inhibition of PKK at 5.00 μM ([1]; Table 40): 55% | IC50 [1, 10]: 3900 nM | % inhibition [2, 11]: 67%

548743 (DNA e[5mC]*eA*e[5mC]*eT*dG*dT*dA*d[5mC]*dT*dA*dG*dT*dT*eT*e[5mC]*e[5mC]*eT; antisense) [compound 548743]
percent inhibition of PKK at 0.19 μM ([1]; Table 40): 25% | percent inhibition of PKK at 0.56 μM ([1]; Table 40): 57% | percent inhibition of PKK at 1.67 μM ([1]; Table 40): 73% | percent inhibition of PKK at 5.00 μM ([1]; Table 40): 88% | IC50 [1, 10]: 500 nM | percent inhibition of PKK mRNA, 0.19 μM [1]: 22% | percent inhibition of PKK mRNA, 0.56 μM [1]: 47% | percent inhibition of PKK mRNA, 1.67 μM [1]: 74% | percent inhibition of PKK mRNA, 5.00 μM [1]: 96% | IC50 ([1]; 0.19-5.00 μM): 600 nM | % inhibition [2, 12]: 80%

548744 (DNA eT*e[5mC]*eA*e[5mC]*dT*dG*dT*dA*d[5mC]*dT*dA*dG*dT*eT*eT*e[5mC]*e[5mC]; antisense) [compound 548744]
percent inhibition of PKK at 0.19 μM ([1]; Table 38): 14% | percent inhibition of PKK at 0.56 μM ([1]; Table 38): 35% | percent inhibition of PKK at 1.67 μM ([1]; Table 38): 63% | percent inhibition of PKK at 5.00 μM ([1]; Table 38): 83% | IC50 [1, 7]: 1000 nM | % inhibition [2, 12]: 83%
